Measured values from US20220184054A1, “ANTI-VIRAL ACTIVITY OF VPS34 INHIBITORS” (priority 2020, published 2022).
pIC50: −log10 of the molar value. Read-outs that look alike come from different tables or passages of the source.

How the values were obtained:
[1] = system: SARS CoV-2 (USA_WA1/2020); test: SARS CoV-2 CPE assay for antiviral activity (Vero E6 host cells, Cell Titer-Glo); type: cell-based; conditions: read-out: IC50 for inhibition of SARS CoV-2 mediated cell killing
[2] = Compound cytotoxicity (CC50) counter screen in Vero E6 cells; type: cell-based; conditions: African green monkey, read-out: CC50 (general cytotoxic effects in Vero E6 cells)
Experimental: Compound cytotoxicity (CC50) is assessed in a BSL-2 counter screen as follows: Host cells in media are added in 25 μl aliquots (4000 cells/well) to each well of assay ready plates prepared with test compounds as above. Cells only (100% viability) and cells treated with hyamine at 100 μM final concentration (0% viability) serve as the high and low signal controls, respectively, for cytotoxic effect in the assay. DMSO is maintained at a constant concentration for all wells (0.3%) as dictated by the dilution factor of stock test compound concentrations. After incubating plates at 37° C./5% CO2 and 90% humidity for 72 hours, 30 μl Cell Titer-Glo (Promega) is added to each well. Luminescence is read using a BMG PHERAstar plate reader following incubation at room temperature for 10 minutes to measure cell viability.

SARS-CoV-2 = test: microbe, parasite or virus in culture; type: cell-based; conditions: Severe acute respiratory syndrome coronavirus 2, A549, 48 h; read-out: IC50 for inhibition of SARS CoV-2 mediated cell killing
in vitro = conditions: human
[3] = Vero C1008, Vero E6 cells, 10-point dose response, high concentration 15 μM, 72 hours

| SMILES | pIC50 [1, 3] | CC50 at 72 h [2] [nM] | pIC50 (SARS-CoV-2) | CC50 (in vitro) [nM] | pIC50 ([1]; Vero C1008, 72 h) |
| --- | --- | --- | --- | --- | --- |
| O=c1cc(-c2ccnc3[nH]ncc23)cc(N2CCCCC2C(F)(F)F)[nH]1 (stereo not shown) [Compound 1] | 6.33 | 15000 | 6.29 | 8000 |  |
| N#Cc1cc2c(-c3cc(-c4ccccc4C(F)(F)F)[nH]c(=O)c3)ccnc2[nH]1 [Compound 2] | 5.52 | > 10000 | 5.81 | > 10000 |  |
| O=c1cc(-c2ccnc3[nH]c(C4CC4)cc23)cc(N2CCCCC2C(F)(F)F)[nH]1 (stereo not shown) [Compound 3] | 6.94 | 2830 | 7.54 | 482 |  |
| Cc1ccc(-c2cc3c(-c4cc(N5CCOCC5C(F)(F)F)[nH]c(=O)c4)ccnc3[nH]2)s1 (stereo not shown) [Compound 4] |  | 1430 | 6.80 | 411 | 5.98 |
